This note sets out measurements from US8420569B2, “Pesticidal mixtures” (BASF SE, priority 2006, dated 2013).

SMILES strings stand for the structures.

Type in all cases: in vivo
Assay [1] deals with boll weevil (Anthonomus grandis). The assay can be described thus: control of boll weevil, insect diet with eggs in 24-well microtiter plates. The conditions noted are these: sprayed onto insect diet, 5 days, egg and larval mortality. The protocol: (§1) The analysis of synergism or antagonism between the mixtures or compositions was determined using Colbys equation.
For evaluating control of boll weevil (Anthonomus grandis) the test unit consisted of 24-well-microtiter plates containing an insect diet and 20-30 A. grandis eggs.
The compounds or mixtures were formulated using a solution containing 75% water and 25% DMSO. Different concentrations of formulated compounds or mixtures were sprayed onto the insect diet at 20 μl, using a custom built micro atomizer, at two replications.
(§2) For experimental mixtures in these tests identical volumes of both mixing partners at the desired concentrations respectively, were mixed together.
After application, microtiter plates were incubated at 23+1° C., 50+5% RH for 5 days. Egg and larval mortality was then visually assessed.
In this test the compound I-2 and N-[2-(1,1,2,3,3,3-hexafluoropropoxy)-phenyl]-3-difluoromethyl-1-methyl-1H-pyrazole-4-carboxamide (compound 3.1), and N-(3′,4′,5′-trifluorobiphenyl-2-yl)-1-methyl-3-difluoromethyl-1H-pyrazole-4-carboxamide (compound 3.2) were used.

Assay [2] deals with green peach aphid (Myzus persicae). The assay can be described thus: control of green peach aphid through systemic means, artificial diet under membrane in 96-well microtiter plates. The conditions noted are these: pipetted into aphid diet, 3 days, mortality and fecundity. How it is done:
as §1
For evaluating control of green peach aphid (Myzus persicae) through systemic means the test unit consisted of 96-well-microtiter plates containing liquid artificial diet under an artificial membrane.
The compounds or mixtures were formulated using a solution containing 75% water and 25% DMSO. Different concentrations of formulated compounds or mixtures were pipetted into the aphid diet, using a custom built pipetter, at two replications.
as §2
After application, 5 to 8 adult aphids were placed on the artificial membrane inside the microtiter plate wells. The aphids were then allowed to suck on the treated aphid diet and incubated at 23+1° C., 50+5% RH for 3 days. Aphid mortality and fecundity was then visually assessed.
In this test the compound 1-2, and 5-chloro-7-(4-methylpiperidin-1-yl)-6-(2,4,6-trifluoro-phenyl)-[1,2,4]triazolo[1,5-a]pyrimidine (compound 2.2) and N-[2-(1,1,2,3,3,3-hexa-fluoropropoxy)-phenyl]-3-difluoromethyl-1-methyl-1H-pyrazole-4-carboxamide (compound 3.1) were used.

Assay [3] has as its system vetch aphid (Megoura viciae). The assay can be described thus: control of vetch aphid through contact or systemic means, broad bean leaf disks in 24-well microtiter plates. Particulars: sprayed on leaf disks, 5 days, mortality and fecundity. The protocol:
as §1
For evaluating control of vetch aphid (Megoura viciae) through contact or systemic means the test unit consisted of 24-well-microtiter plates containing broad bean leaf disks.
The compounds or mixtures were formulated using a solution containing 75% water and 25% DMSO. Different concentrations of formulated compounds or mixtures were sprayed onto the leaf disks at 2.5 μl, using a custom built micro atomizer, at two replications.
as §2
After application, the leaf disks were air-dried and 5-8 adult aphids placed on the leaf disks inside the microtiter plate wells. The aphids were then allowed to suck on the treated leaf disks and incubated at 23+1° C., 50+5% RH for 5 days. Aphid mortality and fecundity was then visually assessed.
In this test the compound 1-2, and N-(3′,4′-dichloro-5-fluorobiphenyl-2-yl)-3-difluoro-methyl-1-methylpyrazole-4-carboxamide (compound 2.1), and 5-chloro-7-(4-methyl-piperidin-1-yl)-6-(2,4,6-trifluorophenyl)-[1,2,4]triazolo[1,5-a]pyrimidine (compound 2.2) were used.

Regarding `Cn1cc(C(=O)Nc2ccccc2OC(F)(F)C(F)C(F)(F)F)c(C(F)F)n1` (stereo not shown) [3.1, N-[2-(1,1,2,3,3,3-hexafluoropropoxy)-phenyl]-3-difluoromethyl-1-methyl-1H-pyrazole-4-carboxamide], the “Average Control %” value in assay [1] (40 ppm) and in assay [2] (1000 ppm) was 0% throughout.

Take `Cn1cc(C(=O)Nc2ccc(F)cc2-c2ccc(Cl)c(Cl)c2)c(C(F)F)n1` [2.1, N-(3′,4′-dichloro-5-fluorobiphenyl-2-yl)-3-difluoro-methyl-1-methylpyrazole-4-carboxamide]: the “Average Control %” value in assay [3] (1000 ppm) stood at 0%.

For the compound `Cn1cc(C(=O)Nc2ccccc2-c2cc(F)c(F)c(F)c2)c(C(F)F)n1` [3.2, N-(3′,4′,5′-trifluorobiphenyl-2-yl)-1-methyl-3-difluoromethyl-1H-pyrazole-4-carboxamide], the “Average Control %” value in assay [1] (200 ppm) is reported as 50%.

Take `CC1CCN(c2c(-c3c(F)cc(F)cc3F)c(Cl)nc3ncnn23)CC1` [2.2, 5-chloro-7-(4-methyl-piperidin-1-yl)-6-(2,4,6-trifluorophenyl)-[1,2,4]triazolo[1,5-a]pyrimidine]: the “Average Control %” value in assay [3] (40 ppm) and in assay [2] (8 ppm) was 0% each time.

Regarding `CNC(=O)c1cc(C#N)cc(C)c1NC(=O)c1cc(Br)nn1-c1ncccc1Cl` [I-2], the “Average Control %” value in assay [3] (0.5 ppm), in assay [3] (2.5 ppm), in assay [1] (0.5 ppm) and in assay [2] (0.5 ppm) was 0% each time.
